Molecular target: T1, aromatase (CYP19) (Homo sapiens, UniProt P11511)
T1 sequence (P11511 1-503): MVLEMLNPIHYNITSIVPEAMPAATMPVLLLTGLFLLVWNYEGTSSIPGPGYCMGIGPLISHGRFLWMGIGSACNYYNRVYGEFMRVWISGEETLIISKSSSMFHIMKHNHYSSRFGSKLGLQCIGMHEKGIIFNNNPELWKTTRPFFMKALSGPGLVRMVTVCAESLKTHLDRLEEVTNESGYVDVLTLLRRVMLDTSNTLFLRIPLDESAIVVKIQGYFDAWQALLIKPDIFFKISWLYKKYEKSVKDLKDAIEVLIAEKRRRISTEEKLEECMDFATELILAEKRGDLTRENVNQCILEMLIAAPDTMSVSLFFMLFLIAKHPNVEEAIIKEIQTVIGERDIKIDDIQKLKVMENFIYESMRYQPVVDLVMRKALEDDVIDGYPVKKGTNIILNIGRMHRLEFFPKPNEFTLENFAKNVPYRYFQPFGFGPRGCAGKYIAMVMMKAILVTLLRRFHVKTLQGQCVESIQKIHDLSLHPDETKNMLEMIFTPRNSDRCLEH
Type: cell-based

C/C=C(\C)c1cc(O)c(C)c2c1Oc1cc(O)cc(C)c1C(=O)O2 [UNG, unguinol]
IC50: 9.73 µM

From publication PMC5615129 (Toxicology Reports, 2017)
